Laboratory results taken from the kinase profiling compilation of Christmann-Franck et al. (2016).

How the values were obtained:
Test in all cases: KINOMEscan competition binding
[1] = molecular target: ABL1 (human) (UniProt P00519)
[2] = molecular target: ABL1 (human), P00519 [Y253F]
[3] = molecular target: AKT2 (human) (UniProt P31751)
[4] = molecular target: ANKK1 (human) (UniProt Q8NFD2)
[5] = molecular target: BRAF (human) (UniProt P15056)
[6] = molecular target: CAMK1G (human) (UniProt Q96NX5)
[7] = molecular target: CAMKK1 (human) (UniProt Q8N5S9)
Chain of CAMKK1 (human) (Q8N5S9 whole entry, looked up): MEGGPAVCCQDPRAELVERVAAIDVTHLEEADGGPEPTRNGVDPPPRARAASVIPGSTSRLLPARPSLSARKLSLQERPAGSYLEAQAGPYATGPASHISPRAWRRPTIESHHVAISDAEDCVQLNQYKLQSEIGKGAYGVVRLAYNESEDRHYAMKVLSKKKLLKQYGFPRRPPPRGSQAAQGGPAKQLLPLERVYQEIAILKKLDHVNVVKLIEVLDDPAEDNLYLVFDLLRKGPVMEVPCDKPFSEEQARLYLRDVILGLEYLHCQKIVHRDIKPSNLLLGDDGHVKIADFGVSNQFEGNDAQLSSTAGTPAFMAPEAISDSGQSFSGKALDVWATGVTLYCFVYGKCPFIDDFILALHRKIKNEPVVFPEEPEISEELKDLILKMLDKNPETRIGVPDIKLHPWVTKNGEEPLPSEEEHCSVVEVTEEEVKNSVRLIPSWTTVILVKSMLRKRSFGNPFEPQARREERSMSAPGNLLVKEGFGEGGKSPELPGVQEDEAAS

[8] = molecular target: CDC42BPA (human) (UniProt Q5VT25)
[9] = molecular target: CDC42BPB (human) (UniProt Q9Y5S2)
[10] = molecular target: CDC42BPG (human) (UniProt Q6DT37)
[11] = molecular target: CDK14 (human) (UniProt O94921)
Chain of CDK14 (human) (O94921 whole entry, looked up): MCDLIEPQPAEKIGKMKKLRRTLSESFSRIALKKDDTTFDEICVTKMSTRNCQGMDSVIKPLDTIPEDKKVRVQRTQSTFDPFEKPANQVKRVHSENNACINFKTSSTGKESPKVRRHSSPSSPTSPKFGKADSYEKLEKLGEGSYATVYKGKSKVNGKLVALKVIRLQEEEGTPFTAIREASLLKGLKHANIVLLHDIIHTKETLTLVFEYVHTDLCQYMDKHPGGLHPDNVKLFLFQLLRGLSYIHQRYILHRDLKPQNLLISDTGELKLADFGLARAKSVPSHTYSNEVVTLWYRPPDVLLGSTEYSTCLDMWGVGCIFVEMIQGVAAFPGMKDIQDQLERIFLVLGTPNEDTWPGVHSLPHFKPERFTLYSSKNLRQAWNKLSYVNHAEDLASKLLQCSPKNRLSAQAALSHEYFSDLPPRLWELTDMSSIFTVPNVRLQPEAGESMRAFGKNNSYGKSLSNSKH

[12] = molecular target: CDK18 (human) (UniProt Q07002)
[13] = molecular target: CDK19 (human) (UniProt Q9BWU1)
[14] = molecular target: CDKL2 (human) (UniProt Q92772)
[15] = molecular target: CDKL5 (human) (UniProt O76039)
[16] = molecular target: EIF2AK2 (human) (UniProt P19525)
[17] = molecular target: EPHA1 (human) (UniProt P21709)
[18] = molecular target: EPHA4 (human) (UniProt P54764)
[19] = molecular target: EPHB1 (human) (UniProt P54762)
[20] = molecular target: ERBB4 (human) (UniProt Q15303)
[21] = molecular target: FER (human) (UniProt P16591)
[22] = molecular target: FLT3 (human), P36888 [D835H]
[23] = molecular target: FLT4 (human) (UniProt P35916)
[24] = molecular target: FYN (human) (UniProt P06241)
[25] = molecular target: GSK3A (human) (UniProt P49840)
[26] = molecular target: MAP2K2 (human) (UniProt P36507)
[27] = molecular target: MAP4K5 (human) (UniProt Q9Y4K4)
[28] = molecular target: MAPK11 (human) (UniProt Q15759)
Chain of MAPK11 (human) (Q15759 whole entry, looked up): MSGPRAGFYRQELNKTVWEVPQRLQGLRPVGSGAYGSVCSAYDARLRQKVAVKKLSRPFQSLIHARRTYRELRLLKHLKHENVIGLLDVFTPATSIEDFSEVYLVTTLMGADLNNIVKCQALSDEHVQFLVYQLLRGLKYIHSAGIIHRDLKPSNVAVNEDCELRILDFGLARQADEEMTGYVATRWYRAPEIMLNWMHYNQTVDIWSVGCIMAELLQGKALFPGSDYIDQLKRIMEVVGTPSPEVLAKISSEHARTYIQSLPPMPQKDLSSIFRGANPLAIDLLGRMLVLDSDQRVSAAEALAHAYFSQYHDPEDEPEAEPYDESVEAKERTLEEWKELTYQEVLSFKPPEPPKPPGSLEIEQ

[29] = molecular target: MAPK12 (human) (UniProt P53778)
[30] = molecular target: MAPK13 (human) (UniProt O15264)
[31] = molecular target: MAPK14 (human) (UniProt Q16539)
[32] = molecular target: MAPK9 (human) (UniProt P45984)
[33] = molecular target: MLTK (human) (UniProt Q9NYL2)
[34] = molecular target: MYLK2 (human) (UniProt Q9H1R3)
[35] = molecular target: PDGFRA (human) (UniProt P16234)
[36] = molecular target: PRKACB (human) (UniProt P22694)
[37] = molecular target: ROS1 (human) (UniProt P08922)
Chain of ROS1 (human) (P08922 whole entry, looked up): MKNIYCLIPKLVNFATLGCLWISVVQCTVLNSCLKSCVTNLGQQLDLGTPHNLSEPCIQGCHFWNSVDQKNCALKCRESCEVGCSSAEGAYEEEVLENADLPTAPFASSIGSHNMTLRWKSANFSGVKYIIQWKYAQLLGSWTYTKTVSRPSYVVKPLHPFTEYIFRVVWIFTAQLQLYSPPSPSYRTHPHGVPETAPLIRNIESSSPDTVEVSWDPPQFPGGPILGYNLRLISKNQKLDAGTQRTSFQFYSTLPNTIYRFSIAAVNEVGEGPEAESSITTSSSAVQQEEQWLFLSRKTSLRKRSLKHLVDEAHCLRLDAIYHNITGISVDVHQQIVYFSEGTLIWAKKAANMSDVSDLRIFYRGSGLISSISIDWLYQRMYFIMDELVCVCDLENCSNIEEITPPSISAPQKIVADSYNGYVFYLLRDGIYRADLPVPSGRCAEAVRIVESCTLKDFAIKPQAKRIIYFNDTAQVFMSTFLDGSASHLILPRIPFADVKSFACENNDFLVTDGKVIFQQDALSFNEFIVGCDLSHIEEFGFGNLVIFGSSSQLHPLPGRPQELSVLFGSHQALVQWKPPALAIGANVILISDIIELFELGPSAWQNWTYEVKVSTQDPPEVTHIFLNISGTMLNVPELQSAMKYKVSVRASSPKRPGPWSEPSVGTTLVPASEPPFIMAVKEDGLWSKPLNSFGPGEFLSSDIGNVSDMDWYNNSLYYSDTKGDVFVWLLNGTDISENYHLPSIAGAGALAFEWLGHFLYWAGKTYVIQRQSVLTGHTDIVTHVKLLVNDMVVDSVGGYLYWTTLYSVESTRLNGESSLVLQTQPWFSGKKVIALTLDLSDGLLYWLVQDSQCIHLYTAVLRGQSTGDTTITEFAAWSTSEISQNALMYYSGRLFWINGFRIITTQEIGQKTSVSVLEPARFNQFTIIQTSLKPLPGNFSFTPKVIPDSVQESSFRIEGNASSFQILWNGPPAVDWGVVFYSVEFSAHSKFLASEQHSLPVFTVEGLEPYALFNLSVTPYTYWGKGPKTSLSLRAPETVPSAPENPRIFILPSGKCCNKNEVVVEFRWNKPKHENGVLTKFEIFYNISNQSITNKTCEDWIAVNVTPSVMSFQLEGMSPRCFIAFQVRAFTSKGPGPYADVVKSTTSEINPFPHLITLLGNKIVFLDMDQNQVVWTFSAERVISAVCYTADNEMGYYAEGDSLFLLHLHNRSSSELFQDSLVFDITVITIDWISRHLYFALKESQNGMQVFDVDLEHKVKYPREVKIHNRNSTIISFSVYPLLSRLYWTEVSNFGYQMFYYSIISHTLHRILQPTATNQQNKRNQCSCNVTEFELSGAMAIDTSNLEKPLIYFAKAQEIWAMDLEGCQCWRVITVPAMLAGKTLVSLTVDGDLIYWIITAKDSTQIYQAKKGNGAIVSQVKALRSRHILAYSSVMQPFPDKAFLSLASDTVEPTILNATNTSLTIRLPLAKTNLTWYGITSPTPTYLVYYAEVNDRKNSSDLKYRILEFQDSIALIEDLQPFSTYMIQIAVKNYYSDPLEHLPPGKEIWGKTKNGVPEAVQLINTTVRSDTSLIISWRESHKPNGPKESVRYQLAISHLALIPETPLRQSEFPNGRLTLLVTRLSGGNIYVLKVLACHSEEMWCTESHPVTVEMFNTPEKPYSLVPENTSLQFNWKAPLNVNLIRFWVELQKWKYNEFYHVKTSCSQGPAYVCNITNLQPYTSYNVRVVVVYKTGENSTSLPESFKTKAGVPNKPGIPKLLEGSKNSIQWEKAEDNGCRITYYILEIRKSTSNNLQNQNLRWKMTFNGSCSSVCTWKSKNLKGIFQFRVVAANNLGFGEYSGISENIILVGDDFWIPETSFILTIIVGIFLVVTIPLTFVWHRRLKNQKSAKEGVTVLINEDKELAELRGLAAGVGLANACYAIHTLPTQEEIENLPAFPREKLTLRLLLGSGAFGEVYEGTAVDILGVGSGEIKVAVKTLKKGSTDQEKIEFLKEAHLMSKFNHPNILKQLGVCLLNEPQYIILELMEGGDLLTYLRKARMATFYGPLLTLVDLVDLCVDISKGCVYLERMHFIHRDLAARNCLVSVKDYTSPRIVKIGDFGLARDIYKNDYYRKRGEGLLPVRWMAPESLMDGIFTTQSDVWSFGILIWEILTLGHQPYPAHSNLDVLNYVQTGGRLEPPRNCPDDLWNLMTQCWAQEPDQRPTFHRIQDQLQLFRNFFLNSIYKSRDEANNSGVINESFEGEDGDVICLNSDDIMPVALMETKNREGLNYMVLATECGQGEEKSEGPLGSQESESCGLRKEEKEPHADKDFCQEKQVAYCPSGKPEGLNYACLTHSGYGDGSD

[38] = molecular target: SLK (human) (UniProt Q9H2G2)
Chain of SLK (human) (Q9H2G2 whole entry, looked up): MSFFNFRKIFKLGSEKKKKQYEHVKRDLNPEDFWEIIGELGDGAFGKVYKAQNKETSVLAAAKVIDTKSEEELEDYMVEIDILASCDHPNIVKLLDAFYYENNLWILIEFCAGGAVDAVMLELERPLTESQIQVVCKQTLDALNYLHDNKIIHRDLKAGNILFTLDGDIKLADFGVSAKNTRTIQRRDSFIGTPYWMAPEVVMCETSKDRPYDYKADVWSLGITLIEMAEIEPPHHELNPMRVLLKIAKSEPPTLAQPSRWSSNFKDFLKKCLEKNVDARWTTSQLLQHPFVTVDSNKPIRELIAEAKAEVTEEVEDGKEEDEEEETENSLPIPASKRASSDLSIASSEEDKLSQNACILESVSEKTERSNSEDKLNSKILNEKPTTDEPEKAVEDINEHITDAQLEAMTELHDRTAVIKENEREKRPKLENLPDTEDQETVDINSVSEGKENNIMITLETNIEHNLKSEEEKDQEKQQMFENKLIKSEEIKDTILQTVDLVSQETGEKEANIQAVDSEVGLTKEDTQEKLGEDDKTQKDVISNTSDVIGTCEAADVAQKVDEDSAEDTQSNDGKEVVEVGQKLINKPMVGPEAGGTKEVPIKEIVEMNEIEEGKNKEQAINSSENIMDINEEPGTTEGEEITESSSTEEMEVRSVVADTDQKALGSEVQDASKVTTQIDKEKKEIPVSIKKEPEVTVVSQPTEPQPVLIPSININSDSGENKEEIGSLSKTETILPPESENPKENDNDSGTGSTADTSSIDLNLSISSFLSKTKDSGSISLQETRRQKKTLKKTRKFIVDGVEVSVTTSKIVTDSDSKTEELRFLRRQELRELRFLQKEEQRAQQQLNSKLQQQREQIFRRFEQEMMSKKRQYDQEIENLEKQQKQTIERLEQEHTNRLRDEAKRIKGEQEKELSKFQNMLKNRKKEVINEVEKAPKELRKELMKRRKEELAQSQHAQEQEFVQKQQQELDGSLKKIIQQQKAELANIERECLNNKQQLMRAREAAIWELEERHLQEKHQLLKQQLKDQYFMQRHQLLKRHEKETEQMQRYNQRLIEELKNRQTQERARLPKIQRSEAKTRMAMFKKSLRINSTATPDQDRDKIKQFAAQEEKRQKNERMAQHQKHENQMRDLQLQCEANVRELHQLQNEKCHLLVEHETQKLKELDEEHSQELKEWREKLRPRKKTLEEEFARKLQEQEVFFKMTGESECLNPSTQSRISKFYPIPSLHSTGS

[39] = molecular target: SRC (human) (UniProt P12931)
[40] = molecular target: TAOK3 (human) (UniProt Q9H2K8)
[41] = molecular target: ULK3 (human) (UniProt Q6PHR2)

**Q.** How did the Kd [1] turn out when `COc1cc2ncnc(Oc3cccc(NC(=O)Nc4cc(C(C)(C)C(F)(F)F)on4)c3)c2cc1OC` was run?
**A.** Its Kd is 2.8 nM.

**Q.** What about the Kd [2] of the same compound?
**A.** Its Kd is 3 nM.

**Q.** What about the Kd [3] of the same compound?
**A.** Its Kd is 8.4 µM.

**Q.** What about the Kd [4] of the same compound?
**A.** The Kd was 4.6 µM.

**Q.** And the Kd [5]?
**A.** The Kd was 36 nM.

**Q.** And the Kd [6]?
**A.** Its Kd is 30 µM.

**Q.** And the Kd [7]?
**A.** The Kd was 16 µM.

**Q.** And the Kd [8]?
**A.** The Kd was 30 µM.

**Q.** And the Kd [9]?
**A.** Its Kd is 2000 nM.

**Q.** What about the Kd [10] of the same compound?
**A.** The Kd was 4.4 µM.

**Q.** What about the Kd [11] of the same compound?
**A.** The Kd was 110 nM.

**Q.** And the Kd [12]?
**A.** The Kd was 1100 nM.

**Q.** What about the Kd [13] of the same compound?
**A.** Its Kd is 940 nM.

**Q.** And the Kd [14]?
**A.** The Kd was 43 nM.

**Q.** What about the Kd [15] of the same compound?
**A.** The Kd was 92 nM.

**Q.** And the Kd [16]?
**A.** Its Kd is 34 µM.

**Q.** And the Kd [17]?
**A.** Its Kd is 140 nM.

**Q.** And the Kd [18]?
**A.** Its Kd is 31 nM.

**Q.** And the Kd [19]?
**A.** The Kd was 150 nM.

**Q.** What about the Kd [20] of the same compound?
**A.** Its Kd is 210 nM.

**Q.** What about the Kd [21] of the same compound?
**A.** The Kd was 200 nM.

**Q.** What about the Kd [22] of the same compound?
**A.** Its Kd is 67 nM.

**Q.** And the Kd [23]?
**A.** Its Kd is 9.3 nM.

**Q.** And the Kd [24]?
**A.** Its Kd is 130 nM.

**Q.** What about the Kd [25] of the same compound?
**A.** Its Kd is 6 µM.

**Q.** What about the Kd [26] of the same compound?
**A.** Its Kd is 8.3 µM.

**Q.** And the Kd [27]?
**A.** Its Kd is 29 nM.

**Q.** And the Kd [28]?
**A.** The Kd was 15 nM.

**Q.** And the Kd [29]?
**A.** The Kd was 1300 nM.

**Q.** What about the Kd [30] of the same compound?
**A.** Its Kd is 390 nM.

**Q.** What about the Kd [31] of the same compound?
**A.** The Kd was 38 nM.

**Q.** What about the Kd [32] of the same compound?
**A.** The Kd was 4.1 nM.

**Q.** And the Kd [33]?
**A.** Its Kd is 8.2 nM.

**Q.** And the Kd [34]?
**A.** Its Kd is 7.5 µM.

**Q.** And the Kd [35]?
**A.** Its Kd is 5.4 nM.

**Q.** And the Kd [36]?
**A.** Its Kd is 20 µM.

**Q.** What about the Kd [37] of the same compound?
**A.** Its Kd is 2500 nM.

**Q.** And the Kd [38]?
**A.** Its Kd is 20 nM.

**Q.** And the Kd [39]?
**A.** The Kd was 99 nM.

**Q.** What about the Kd [40] of the same compound?
**A.** Its Kd is 1600 nM.

**Q.** And the Kd [41]?
**A.** The Kd was 13 µM.
